# Tests used:
# MDA-1986 cells [1] = experiment: Cell growth inhibition (resazurin blue), MDA-1986; assay type: cell-based, human; details: 72 hours
# Description: (§1) Cell growth inhibition was determined in 96-well plates (3,000 cells/well in 100 μL, 12 replicates/sample) using highly invasive human breast cancer cells, MDA-MB-231, non-metastatic human breast cancer cells, MDA-MB-468, and highly invasive human head and neck squamous cell cancer cells positive for epithelia growth factor receptor, MDA-1986. Drug or conjugate solutions were applied after 24 hours, and 72 hours post-addition, resazurin blue in 10 μL of PBS was applied to each well (final concentration 5 μM).
# MCF-7 cells [2] = experiment: Cell growth inhibition (resazurin blue), MCF-7; assay type: cell-based, human; details: 72 hours after drug addition
# Description: Plates were seeded with 3,000 cells/well in 100 μL of media (12 replicates/sample). Drug or conjugate solutions were applied after 24 hours. […] The in vitro anti-proliferative activities of cisplatin, NO-donating prodrug, and their star polymer-based conjugates, including acid-Pt, acid-NO, and combinational acid-Pt/acid-NO were evaluated in cell culture using a human breast cancer cell line, MCF-7. […] The acid-Pt appeared to be less cytotoxic than cisplatin in the cells. This is likely due to the slow release of the active drug, which was not unexpected for a sustained-delivery platform. One of the obstacles that has not yet been overcome in infusion chemotherapy is the poor tumor penetration and accumulation of small-molecule anti-cancer agents. Usually the majority of the chemotherapeutics have been cleared from systemic circulation, via the kidneys, before a significant concentration of the anti-cancer agent is achieved in the tumorigenic tissues. However, the acid-Pt and acid-NO nanoconjugates may greatly enhance the intratumoral drug concentration compared to the normal tissues due to the Enhanced Permeability and Retention effect (EPR), in which nanoformulations tend to penetrate tumors more effectively via leaky, fenestrated tumor blood vessels. […]
# MDA-MB-231 cells = experiment: Cell growth inhibition (resazurin blue), MDA-MB-231; assay type: cell-based, human; details: 72 hours
# Description: as §1
# MDA-MB-468 cells = experiment: Cell growth inhibition (resazurin blue), MDA-MB-468; assay type: cell-based, human; details: 72 hours
# Description: as §1
# MCF-7 cells [3] = system: MCF-7 cells
# MDA-1986 cells [4] = experiment: Nitric oxide release (Griess) in cell culture with MDA-1986 cells; assay type: cell-based, human
# Description: The fluorescence intensity was measured between 520 and 550 nm using a fluorescence microplate reader.
# The concentration of nitrite, the stable breakdown product of gaseous nitric oxide, was measured using Griess assay as an indirect measurement of nitric oxide concentration in cell culture media. The assay is based on the reaction between sulfanilamide, N-1-napthyethylenediamine dihydrochloride and nitrite, under acidic conditions to produce a […] azo compound.
compound,measurement,setting,value
"O=[N+]([O-])c1ccc(ON=[N+]([O-])N2CCN(CCOCCO)CC2)c([N+](=O)[O-])c1 [NO1, O^2-(2,4-Dinitrophenyl) 1-{[4-(2-(2-hydroxyethoxy))ethyl]piperazin-1-yl}diazen-1-ium-1,2-diolate]",IC50,MDA-1986 cells [1],33 ± 1 µM
same,IC50,MCF-7 cells [2],48 ± 28 µM
same,IC50,MDA-MB-231 cells,32 ± 3 µM
same,IC50,MDA-MB-468 cells,26 ± 4 µM
same,Release half-life,MCF-7 cells [3],7.4 h
same,Release half-life,MDA-1986 cells [4],7.1 h
